O=S(=O)([O-])Oc1ccc(C(c2ccc(OS(=O)(=O)[O-])cc2)c2ccccn2)cc1.[Na+].[Na+]
solubility (mole fraction)
Details	in DMF	in DMSO	in acetic acid	in acetonitrile	in ethanol	in methanol	in n-butanol	in n-propanol	in water
298.15 K	0.0269	0.0049	0.0014	0.0001	0.0011	0.0096	0.0001	0.0002	0.0215
303.15 K	0.0321	0.0058	0.0019	0.0001	0.0015	0.0116	0.0002	0.0004	0.0252
308.15 K	0.0387	0.0069	0.0025	0.0003	0.0021	0.0142	0.0005	0.0007	0.0299
313.15 K	0.0463	0.0083	0.0034	0.0005	0.003	0.0178	0.0011	0.0014	0.0347
318.15 K	0.0561	0.0099	0.0046	0.001	0.0041	0.0213	0.0022	0.0028	0.0398
